The values below come from US10596172B2 (Celgene CAR LLC, priority 2008, dated 2020).

The target of experiment [1] is T1, BTK (Homo sapiens (Human), UniProt Q06187). Briefly: Omnia assay for potency assessment against BTK. The conditions noted are these: [BTK]=5 nm; read-out: BTK Inhibition. In kind it is biochemical. The method, then:
Omnia Assay Protocol for Potency Assessment Against BTK
The modified BTK-optimized reagent conditions for the above protocol are:
[BTK]=5 nm, [ATP]=40 mM, [Y5-Sox]=10 mM (ATP KMapp˜36 mM).

Another experiment deals with EGFR-WT (Homo sapiens (Human), UniProt P00533). The experiment in a line: Omnia assay for potency assessment against EGFR (WT). Type of experiment: biochemical. The note with it: wild-type EGFR; read-out: EGFR Wild Type Inhibition.
Experiment [2] has as its system B cell lymphoma cell lines. The experiment in a line: B cell lymphoma proliferation assay. In kind it is cell-based. The conditions noted are these: Homo sapiens.
The target of experiment [3] is T1, BTK. The experiment in a line: Washout experiment with Ramos cells. In kind it is cell-based. The conditions noted are these: 100 nM compound 1 hour, then washout. The method, then:
Ramos cells were serum starved for one hour in RPMI media +1% glutamine at 37° C. After starvation, Ramos cells were treated with 100 nM compound diluted in serum free RPMI media for 1 hour. After compound treatment, the media was removed and cells were washed with compound-free media. Subsequently, Ramos cells were washed every 2 hours and resuspended in fresh compound-free media. Cells were collected at specified timepoints, treated with 1 ug anti-human IgM (Southern Biotech cat #2022-01) for 10 minutes on ice to induce BCR signaling and then washed in PBS. Ramos cells were then lysed in Cell Extraction Buffer (Invitrogen FNN0011) supplemented with Roche complete protease inhibitor tablets (Roche 11697498001) and phosphatase inhibitors (Roche 04 906 837 001) and 18 ug total protein lysate was loaded in each lane. Inhibition of BTK kinase activity was assayed by measuring its substrate (PLCγ2) phosphorylation by western blot with phospho-specific antibodies from Cell Signaling Technologies cat #3871. The results of this experiment with compounds I-2, I-4 and I-7 are depicted in FIGS. 1, 2 and 3.

For the next experiment, the target named is JAK3 (Homo sapiens (Human), UniProt P52333). The experiment in a line: Omnia assay for potency assessment against the active form of JAK3. Type of experiment: biochemical. The conditions noted are these: read-out: JAK3 Inhibition. The method, then: Briefly, 10× stocks of EGFR-WT (PV3872) from Invitrogen and EGFR-T790M/L858R (40350) from BPS Bioscience, San Diego, Calif., 1.13×ATP (AS001A) and appropriate Tyr-Sox conjugated peptide substrates (KCZ1001) were prepared in 1× kinase reaction buffer consisting of 20 mM Tris, pH 7.5, 5 mM MgCl2, 1 mM EGTA, 5 mM β-glycerophosphate, 5% glycerol (10× stock, KB002A) and 0.2 mM DTT (DS001A).
The Omnia Assay Protocol for potency assessment against JAK3 was performed in a substantially similar manner as that described in Example 251 above except that the modified JAK3-optimized reagent conditions were:
[JAK3]=5 nM, [ATP]=5 μM, [Y12-Sox]=5 μM (ATP KMapp˜5 μM).

Setting [4] is: DOHH-2, DOHH2 B cell lymphoma cell line, read-out: EC50 (μM) DOHH2.
Setting [5] is: WSUDLCL2, WSU-DLCL2 B cell lymphoma cell line, read-out: EC50 (μM) WSU-DLCL2.

Where two headings read alike, the source gives them in different places. Some results are limits rather than exact numbers.

JAK3, sequence (P52333 whole entry): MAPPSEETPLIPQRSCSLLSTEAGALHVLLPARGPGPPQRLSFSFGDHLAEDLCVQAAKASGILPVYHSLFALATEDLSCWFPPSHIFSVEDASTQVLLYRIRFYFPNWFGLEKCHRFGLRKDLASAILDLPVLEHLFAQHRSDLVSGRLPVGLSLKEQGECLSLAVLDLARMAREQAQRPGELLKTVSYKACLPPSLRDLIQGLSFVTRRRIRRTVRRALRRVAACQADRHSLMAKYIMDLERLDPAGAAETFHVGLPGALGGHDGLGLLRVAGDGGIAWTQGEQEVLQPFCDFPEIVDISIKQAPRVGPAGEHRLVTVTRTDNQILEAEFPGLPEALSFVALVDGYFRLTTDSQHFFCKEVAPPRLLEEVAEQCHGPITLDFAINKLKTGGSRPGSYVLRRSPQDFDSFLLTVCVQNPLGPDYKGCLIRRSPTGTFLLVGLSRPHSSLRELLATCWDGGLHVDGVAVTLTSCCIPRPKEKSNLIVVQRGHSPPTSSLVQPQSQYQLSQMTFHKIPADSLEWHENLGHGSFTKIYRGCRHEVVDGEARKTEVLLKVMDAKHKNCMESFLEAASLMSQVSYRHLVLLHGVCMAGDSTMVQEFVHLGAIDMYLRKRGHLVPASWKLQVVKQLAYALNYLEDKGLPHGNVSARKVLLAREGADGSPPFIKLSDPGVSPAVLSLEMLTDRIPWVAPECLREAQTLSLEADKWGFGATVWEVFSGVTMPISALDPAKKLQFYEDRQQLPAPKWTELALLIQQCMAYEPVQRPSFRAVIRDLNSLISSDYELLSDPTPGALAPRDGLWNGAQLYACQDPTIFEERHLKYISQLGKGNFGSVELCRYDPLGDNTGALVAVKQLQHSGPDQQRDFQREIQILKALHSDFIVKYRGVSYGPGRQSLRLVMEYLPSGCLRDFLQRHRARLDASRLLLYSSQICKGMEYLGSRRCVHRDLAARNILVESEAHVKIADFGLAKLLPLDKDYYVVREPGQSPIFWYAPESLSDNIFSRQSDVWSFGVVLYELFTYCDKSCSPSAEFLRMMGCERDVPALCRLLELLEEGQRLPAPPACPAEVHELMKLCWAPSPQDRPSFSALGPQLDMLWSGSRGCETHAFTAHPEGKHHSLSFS
T1 sequence (Q06187 whole entry): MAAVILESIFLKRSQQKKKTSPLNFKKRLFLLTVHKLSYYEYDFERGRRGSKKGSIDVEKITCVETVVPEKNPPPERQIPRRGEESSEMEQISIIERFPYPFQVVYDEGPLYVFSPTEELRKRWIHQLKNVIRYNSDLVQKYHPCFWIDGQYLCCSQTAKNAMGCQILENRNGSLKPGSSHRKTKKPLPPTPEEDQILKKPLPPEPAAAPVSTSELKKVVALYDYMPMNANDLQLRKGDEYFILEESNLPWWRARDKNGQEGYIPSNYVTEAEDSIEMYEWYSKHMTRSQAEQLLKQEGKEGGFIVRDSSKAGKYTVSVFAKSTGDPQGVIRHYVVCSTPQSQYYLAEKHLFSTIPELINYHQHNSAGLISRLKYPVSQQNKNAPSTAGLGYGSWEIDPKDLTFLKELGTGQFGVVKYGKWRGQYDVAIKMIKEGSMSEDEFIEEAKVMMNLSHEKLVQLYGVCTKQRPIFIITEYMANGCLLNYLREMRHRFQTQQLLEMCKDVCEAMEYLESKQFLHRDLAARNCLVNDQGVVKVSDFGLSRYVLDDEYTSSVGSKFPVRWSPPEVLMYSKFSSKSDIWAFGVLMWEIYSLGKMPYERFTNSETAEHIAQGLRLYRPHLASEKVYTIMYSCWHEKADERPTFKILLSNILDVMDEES

“4-(4-(4-(3-acrylamidophenylamino)-5-fluoropyrimidin-2-ylamino)phenoxy)pyridine [Compound I-346]”: the IC50 on BTK [1] was below 10 nM; on EGFR-WT, 100 to 1000 nM.

For `C=CC(=O)Nc1cccc(Oc2nc(Nc3cc(OC)c(OC)c(OC)c3)ncc2F)c1` [Compound I-148, N-(3-(5-fluoro-2(3,4,5-trimethoxyphenylamino)pyrimidin-4-yloxy)phenyl)acrylamide], the IC50 on BTK [1] and at EGFR-WT was 1000 to 10000 nM throughout.

As to `C=CC(=O)Nc1cccc(Nc2nc(Nc3ccc(O[C@@H](C)CO)c(F)c3)ncc2F)c1` [Compound I-373, (S)—N-(3-(5-fluoro-2-(3-fluoro-4-(1-hydroxypropan-2-yloxy)phenylamino)pyrimidin-4-ylamino)phenyl)acrylamide], the IC50 at BTK [1] was below 10 nM; on EGFR-WT, 10 to 100 nM.

On to `C=CC(=O)N1CCC[C@H](Nc2nc(Nc3ccc(OC)nc3)ncc2F)C1` [Compound I-197, (S)-1-(3-(5-fluoro-2-(6-methoxypyridin-3-ylamino)pyrimidin-4-ylamino)piperidin-1-yl)prop-2-en-1-one], for which the IC50 on BTK [1] and at EGFR-WT was 100 to 1000 nM throughout.

In the case of `C=CC(=O)Nc1cccc(Nc2nc(Nc3ccc(Cl)c(O[C@@H](C)COC(=O)[C@@H](N)C(C)C)c3)ncc2F)c1` [Compound I-369, (S)-((S)-2-(5-(4-(3-acrylamidophenylamino)-5-fluoropyrimidin-2-ylamino)-2-chlorophenoxy)propyl)-2-amino-3-methylbutanoate], the IC50 at BTK [1] is below 10 nM; at EGFR-WT it was 100 to 1000 nM.

Take `COCCOc1ccc(Nc2ncc(F)c(Nc3ccc(CC(=O)C=C4CCC4)cc3)n2)cc1F` [Compound I-378]: the results for the IC50 at BTK [1] and on EGFR-WT were below 10 nM and 10 to 100 nM, respectively.

Consider `C=CC(=O)Nc1cccc(Nc2nc(Nc3ccc(O[C@H](C)COC(=O)[C@@H](N)C(C)C)c(F)c3)ncc2F)c1` [Compound I-374, (S)-((R)-2-(4-(4-(3-acrylamidophenylamino)-5-fluoropyrimidin-2-ylamino)-2-fluorophenoxy)propyl) 2-amino-3-methylbutanoate], for which the IC50 at BTK [1] and at EGFR-WT was below 10 nM in each case.

`C=CC(=O)Nc1cccc(Nc2nc(Nc3ccc(O[C@H](C)CO)c(F)c3)ncc2F)c1` [Compound I-372, (R)—N-(3-(5-fluoro-2-(3-fluoro-4-(1-hydroxypropan-2-yloxy)phenylamino)pyrimidin-4-ylamino)phenyl)acrylamide]: the IC50 is below 10 nM on BTK [1] and 10 to 100 nM at EGFR-WT.

With `C=CC(=O)Nc1cccc(Nc2nc(Nc3ccc(OCCOCCN=[N+]=[N-])cc3)ncc2F)c1` [Compound I-371, N-(3-(2-(4-(2-(2-azidoethoxy)ethoxy)phenylamino)-5-fluoropyrimidin-4-ylamino)phenyl)acrylamide], the IC50 at BTK [1] was below 10 nM; on EGFR-WT, 10 to 100 nM.

For orientation: EC50 means the midpoint of the concentration-response curve. As to `C=CC(=O)Nc1cccc(Oc2nc(Nc3ccccc3)ncc2F)c1` [Compound I-228, N-(3-(5-fluoro-2-(phenylamino)pyrimidin-4-yloxy)phenyl)acrylamide], the concentration for a half-maximal effect (EC50) in experiment [2] (setting [4]) and in experiment [2] (setting [5]) was above 10 µM throughout. Also, the “BTK Inhibition Type” value at BTK [3] was “irreversible”.

For `C=CC(=O)Nc1cccc(Nc2nc(Nc3ccc(OCCN=[N+]=[N-])cc3)ncc2F)c1` [Compound I-376, N-(3-(2-(4-(2-azidoethoxy)phenylamino)-5-fluoropyrimidin-4-ylamino)phenyl)acrylamide], the figures for the IC50 at BTK [1] and on EGFR-WT were below 10 nM and 10 to 100 nM, respectively.

Turning to `C=CC(=O)Nc1cccc(Nc2nc(Nc3ccc(OCCOCCOCCN=[N+]=[N-])cc3)ncc2F)c1` [Compound I-379, N-(3-(2-(4-(2-(2-(2-azidoethoxy)ethoxy)ethoxy)phenylamino)-5-fluoropyrimidin-4-ylamino)phenyl)acrylamide], the IC50 at EGFR-WT is 100 to 1000 nM.

Turning to `C=CC(=O)N1CCOc2ccc(Nc3nc(Nc4ccc(OC)nc4)ncc3C(C)=O)cc21` [Compound I-170, 1-{6-[5-Acetyl-2-(6-methoxy-pyridin-3-ylamino)-pyrimidin-4-ylamino]-2,3-dihydro-benzo[1,4]oxazin-4-yl}-propenone], the IC50 at EGFR-WT fell in the range of 10 to 100 nM.

For `C=CC(=O)Nc1cccc(Nc2ncc(F)c(Nc3cccc(OCCN4CCOCC4)c3)n2)c1` [Compound I-382, N-(3-(5-fluoro-4-(3-(2-morpholinoethoxy)phenylamino)pyrimidin-2-ylamino)phenyl)acrylamide], the figures for the IC50 at BTK [1] and on EGFR-WT were 10 to 100 nM and 100 to 1000 nM, respectively.

On to `C=CC(=O)Nc1cccc(Nc2nc(Nc3ccc(O[C@@H](C)COC(=O)[C@@H](N)C(C)C)c(F)c3)ncc2F)c1` [Compound I-377, (S)-((S)-2-(4-(4-(3-acrylamidophenylamino)-5-fluoropyrimidin-2-ylamino)-2-fluorophenoxy)propyl) 2-amino-3-methylbutanoate], for which, on EGFR-WT, the IC50 is 10 to 100 nM.

Turning to `C=CC(=O)Nc1cccc(Nc2nc(Nc3ccc(OCCOC)c(OCCOC)c3)ncc2F)c1` [Compound I-277, N-(3-(2-(3,4-bis(2-methoxyethoxy)phenylamino)-5-fluoropyrimidin-4-ylamino)phenyl)acrylamide], the IC50 at BTK [1] is below 10 nM; at EGFR-WT, 10 to 100 nM.

Consider `C=CC(=O)Nc1ccc(Nc2nc(Nc3ccccc3)ncc2C)cc1` [Compound I-39, N-(4-(5-methyl-2-(phenylamino)pyrimidin-4-ylamino)phenyl) acrylamide], for which the IC50 at JAK3 was below 10 nM. The EC50 in experiment [2] (setting [4]) and in experiment [2] (setting [5]) was 1 to 10 µM each time.

Take `Cc1cccc(Nc2nc(Nc3cccc(NC(=O)/C=C/CN(C)C)c3)ncc2C)c1` [Compound I-360, (E)-4-(dimethylamino)-N-(3-(5-methyl-4-(m-tolylamino)pyrimidin-2-ylamino)phenyl)but-2-enamide]: the IC50 on BTK [1], at JAK3 and at EGFR-WT was below 10 nM throughout.

Take `C=CC(=O)Nc1cccc(Nc2nc(Nc3ccccc3)ncc2C(N)=O)c1` [Compound I-230, 4-(3-acrylamidophenylamino)-2-(phenylamino)pyrimidine-5-carboxamide]: the EC50 in experiment [2] (setting [4]) and in experiment [2] (setting [5]) was 1 to 10 µM each time. Also, the “BTK Inhibition Type” value on BTK [3] was “irreversible”.

As for `C=CC(=O)Nc1cccc(Nc2ncc(F)c(Nc3ccc(O[C@H]4CCOC4)cc3)n2)c1` [Compound I-338, (S)—N-(3-(5-fluoro-4-(4-(tetrahydrofuran-3-yloxy)phenylamino)pyrimidin-2-ylamino)phenyl)acrylamide], the IC50 on EGFR-WT fell in the range of 10 to 100 nM.

With `C=CC(=O)Nc1cccc(Nc2nc(Nc3ccc(OCCOCCNC(=O)CCCC(=O)NCCCOCCOCCOCCCNC(=O)CCCC[C@@H]4SC[C@@H]5NC(=O)N[C@@H]54)cc3)ncc2F)c1` [Compound I-363, N1-(2-(2-(4-(4-(3-acrylamidophenylamino)-5-fluoropyrimidin-2-ylamino)phenoxy)ethoxy)ethyl)-N5-(15-oxo-19-((3aS,4S,6aR)-2-oxohexahydro-1H-thieno[3,4-d]imidazol-4-yl)-4,7,10-trioxa-14-azanonadecyl)glutaramide], the IC50 on BTK [1] and at EGFR-WT was below 10 nM throughout.

For `C=CC(=O)Nc1cccc(Nc2nc(Nc3ccccc3)ncc2C(F)(F)F)c1` [Compound I-245, N-(3-(5-trifluoromethyl-2-(phenylamino)pyrimidin-4-ylamino)phenyl)acrylamide], at JAK3, the IC50 was below 10 nM. Also, the EC50 in experiment [2] (setting [4]) is 1 to 10 µM; in experiment [2] (setting [5]), above 10 µM.

Consider `C=CC(=O)N1CCCC(Nc2nc(Nc3ccccc3)ncc2C)C1` (stereo not shown) [Compound I-27], for which the IC50 at JAK3 lay within 10 to 100 nM. Also, the figures for the EC50 in experiment [2] (setting [4]) and in experiment [2] (setting [5]) were 1 to 10 µM and above 10 µM, respectively.

Turning to `C=CC(=O)Nc1cccc(Nc2ncc(F)c(Nc3ccc(OCCOC)cc3)n2)c1` [Compound I-381, N-(3-(5-fluoro-4-(4-(2-methoxyethoxy)phenylamino)pyrimidin-2-ylamino)phenyl)acrylamide], the IC50 on BTK [1] and on EGFR-WT was below 10 nM each time.

In the case of `C=CC(=O)Nc1cccc(Nc2nc(Nc3ccc(OCCOCCNC(=O)OC(C)(C)C)cc3)ncc2F)c1` [Compound I-370, tert-butyl 2-(2-(4-(4-(3-acrylamidophenylamino)-5-fluoropyrimidin-2-ylamino)phenoxy)ethoxy)ethylcarbamate], the IC50 on BTK [1] and on EGFR-WT was below 10 nM each time.
